Data published in PubChem BioAssay (NCI).
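Interpolation was linear, between the two tested concentrations surrounding the appropriate level; five concentrations were tested over 48 hours in 96-well plates. Abbreviation: GI50, concentration required for 50% inhibition of growth. TGI is the concentration that stops growth completely.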

Legend:
Assay in all cases: NCI-60 cell line screen, 48 h
HCT-15 colon = system: HCT-15 colon
RPMI-8226 leukemia = system: RPMI-8226 leukemia
IGROV1 ovarian = system: IGROV1 ovarian
LOX IMVI melanoma = system: LOX IMVI melanoma
EKVX NSCLC = system: EKVX NSCLC
SK-MEL-28 melanoma = system: SK-MEL-28 melanoma
UO-31 renal = system: UO-31 renal
SR leukemia = system: SR leukemia

Compound	GI50 (HCT-15 colon) [µM]	TGI (HCT-15 colon) [µM]	GI50 (RPMI-8226 leukemia) [µM]	TGI (RPMI-8226 leukemia) [µM]	GI50 (IGROV1 ovarian) [µM]	TGI (IGROV1 ovarian) [µM]	GI50 (LOX IMVI melanoma) [µM]	TGI (LOX IMVI melanoma) [µM]	GI50 (EKVX NSCLC) [µM]	TGI (EKVX NSCLC) [µM]	GI50 (SK-MEL-28 melanoma) [µM]	TGI (SK-MEL-28 melanoma) [µM]	GI50 (UO-31 renal) [µM]	TGI (UO-31 renal) [µM]	GI50 (SR leukemia) [µM]	TGI (SR leukemia) [µM]
COC(=O)Nc1nc2ccc(Oc3ccc(NC(=O)Nc4cccc(Br)c4)cc3)cc2[nH]1	2.3	> 25	8.24	> 25	3.69	11.8	2.32	> 11.9	8.28	> 25	2.53	7.7	> 16.6	> 25	–	–
CCOC(=O)c1cc2c(n1Cc1cc(OC)cc(OC)c1)-c1oncc1CCC2	0.0678	> 100	0.116	> 33.7	0.0732	> 100	0.119	> 100	–	–	0.143	> 100	0.392	> 100	0.0382	> 100
O=S1(=O)N(Cc2ccccc2)[C@@H](Cc2ccccc2)C2O[C@H]2[C@H](Cc2ccccc2)N1Cc1ccccc1 (stereo partly specified)	3.92	> 7.5	4.92	> 7.5	5.06	> 7.5	5.38	> 7.5	6.55	> 7.5	> 7.5	> 7.5	> 7.5	> 7.5	–	–
Cc1[nH]c(C(=O)Nc2ccc(C(=O)N3CCNCC3)cc2OC(C)C)c(Cl)c1Cl	1.82	3.43	2.31	5.51	1.58	3.49	1.77	3.25	3.49	15	1.78	3.24	1.44	2.85	–	–
C[N+](C)([O-])CCCNc1c2ccccc2nc2cccc([N+](=O)[O-])c12	–	4.93	–	–	–	–	–	6.59	–	0.901	–	–	–	4.34	–	–
c1cc(C2CCCCC2)ccc1OCCCCCCN1CCNCC1	1.64	3.25	–	–	2.04	3.89	–	–	5.76	47.3	2.96	8.76	1.62	3.38	–	–
CC1=C(SCc2ccccc2)C(=O)c2ccccc2C1=O	–	43.5	–	7.36	–	25.3	–	38.2	–	44	–	36.5	–	–	–	–
COc1ccc(-c2nsc3c2NC(=O)CC3c2ccc3c(c2)OCO3)cc1 (stereo unspecified)	0.493	> 100	2.51	> 100	2.61	> 100	–	–	–	–	5.28	> 100	5.09	> 100	0.401	39.3
CCCCCCCCCCCCCCCC(=O)OCC1OC(n2cnc3c(=S)nc(N)[nH]c32)C(OC(=O)CCCCCCCCCCCCCCC)C1OC(=O)CCCCCCCCCCCCCCC (stereo unspecified)	6.17	> 50	–	–	22.7	> 50	1.54	> 50	6.15	> 50	> 39	> 50	9.49	> 50	–	–
COc1ccc(Nc2ccnc(NCCNc3ccnc4cc(Cl)ccc34)n2)cc1	1.23	4.03	1.55	4.84	1.99	11	1.44	2.96	–	–	1.65	3.35	1.5	3.7	2.12	7.51
C[C@]12CC/C(=N\N)C[C@@H]1CC[C@@H]1[C@@H]2CC[C@]2(C)/C(=N/N)CC[C@@H]12	> 100	> 100	> 100	> 100	> 100	> 100	> 100	> 100	> 100	> 100	–	–	51	> 100	–	–
COc1cc2c(c(OC)c1OC)-c1ccc(NNC(=S)N(Cc3cccc(C[N+](Cc4cccc(CNC56CC7CC(CC(C7)C5)C6)c4)(Cc4cccc(CNC56CC7CC(CC(C7)C5)C6)c4)Cc4cccc(CN(C(=S)NNc5ccc6c(cc5=O)[C@@H](NC(C)=O)CCc5cc(OC)c(OC)c(OC)c5-6)C56CC7CC(CC(C7)C5)C6)c4)c3)C34CC5CC(CC(C5)C3)C4)c(=O)cc1[C@@H](NC(C)=O)CC2 (stereo partly specified)	1.56	5.96	0.757	1.76	1.45	5.95	0.873	2.86	2.68	8.46	1.02	4.07	2.16	7.2	–	–
OCCCCC#Cc1ccccc1C#Cc1ccccc1F	18	32.5	30.7	70	15	33.1	17.4	31.6	29.4	94.4	27.3	72.9	20.7	46.5	–	–
N#Cc1cccc(C(=O)c2cnn(-c3ccc(F)cc3)c2N)c1	> 25	> 25	> 25	> 25	> 25	> 25	> 25	> 25	–	–	> 25	> 25	> 25	> 25	> 25	> 25
CSc1ccc(-c2cc(-c3ccc(NC(=O)CCCN4CCCC4)cc3)nc(-c3ccc(NC(=O)CCCN4CCCC4)cc3)c2)cc1	–	–	2.16	4.56	10.3	33.8	2.01	4.18	–	–	3.83	20.7	15.5	37.8	–	–
Cc1ccccc1S(=O)(=O)N1[C@H](c2ccc(Cl)cc2)C(C(=O)N[C@@H](Cc2ccccc2)C(N)=O)=C[C@@H]1C(C)(C)C	2.38	9.5	3.07	26.7	9.57	23.1	6.98	14	–	–	5.34	12	4.23	10.7	3.91	15.4
NC(N)=N/N=C/c1c(-c2cccs2)nc2sccn12	15.4	28.8	12.6	> 100	–	–	14	27	6.32	19.1	12.6	25.3	17	33.7	–	–
Nc1c(C(=O)c2cccc(-c3ccc[n+]([O-])c3)c2)cnn1-c1ccc(F)cc1F	> 25	> 25	> 25	> 25	> 25	> 25	> 25	> 25	–	–	> 25	> 25	> 25	> 25	17.8	> 25
CCN(CC)c1ccc(N=C2C=C(C(=O)Nc3ccc(S(C)(=O)=O)cc3)C(=O)c3ccccc32)c(C)c1	5.28	> 100	4.96	> 100	–	–	7.98	> 100	5.52	> 100	> 100	> 100	67.5	> 100	2.08	> 100
N#Cc1c2ccccc2c2n1-c1ccccc1OC(c1ccccc1)C2=O (stereo unspecified)	3.12	12.5	2.75	9.07	4.37	19.2	2.45	6.82	–	–	8.67	27.5	3.19	12	3.69	15.6
COc1ccc(Nc2ncccc2/C=C/C(=O)c2cc(OC)c(OC)c(OC)c2)cc1	1.66	5.06	–	–	2	5.31	1.23	2.48	1.8	4.01	1.37	2.66	1.12	2.33	0.464	3.98
COc1ccc(C(O)c2cc3c(N)c(C(=O)Nc4cccc(Cl)c4C)sc3nc2C)cc1 (stereo unspecified)	0.623	1.33	0.681	1.85	0.687	1.44	0.838	1.55	0.886	2.16	0.854	1.58	0.627	1.27	–	–
CN(C)C(=S)NN=C(c1ccccn1)c1ccccn1	< 0.012	25.5	–	> 100	< 0.01	21.8	< 0.01	11.5	0.0247	23.8	0.131	18.2	< 0.0184	14.1	–	–
O=C(Nc1c(Cl)cc([N+](=O)[O-])cc1Cl)C(=O)C1C(=O)NC(=S)NC1=O	–	> 100	–	> 100	–	> 100	–	> 100	–	> 100	–	> 100	–	> 100	–	–
O=Nc1c(-c2cccc([N+](=O)[O-])c2)nc2cnccn12	–	30.7	–	–	–	38.6	–	28.5	–	> 100	–	50.3	–	25.2	–	18.4
